PMC10221074, “Functional Profiling of the A-Family of Venom Peptides from the Wolf Spider Lycosa shansia” (Toxins, 2023)

How the values were obtained:
[1] = tested on: Staphylococcus aureus DSM 2569; assay: Antibacterial growth assay (OD600); settings: for Bacterial growth relative to medium, S. aureus, replicate 1 / Bacterial growth relative to medium, S. aureus, replicate 2 / Bacterial growth relative to medium, S. aureus, replicate 3: OD600, medium = 100, MH II broth, 37 °C, peptide 200 µM mixed 50 µL + 50 µL with bacteria, Figure 7: 48 h; for Bacterial growth relative to medium, S. aureus, replicate 1: replicate column 1; for Bacterial growth relative to medium, S. aureus, replicate 2: replicate column 2; for Bacterial growth relative to medium, S. aureus, replicate 3: replicate column 3
A/Hamburg/05/2009 (H1N1) = assay type: cell-based, influenza virus
A/Hessen/1/2003 (H3N2) = assay type: cell-based, influenza virus
[2] = tested on: Listeria monocytogenes DSM 20600; assay: Antibacterial growth assay (OD600); settings: for Bacterial growth relative to medium, L. monocytogenes, replicate 1 / Bacterial growth relative to medium, L. monocytogenes, replicate 2 / Bacterial growth relative to medium, L. monocytogenes, replicate 3: OD600, medium = 100, MH II broth, 37 °C, peptide 200 µM mixed 50 µL + 50 µL with bacteria, Figure 7: 48 h; for Bacterial growth relative to medium, L. monocytogenes, replicate 1: replicate column 1; for Bacterial growth relative to medium, L. monocytogenes, replicate 2: replicate column 2; for Bacterial growth relative to medium, L. monocytogenes, replicate 3: replicate column 3
Experimental: (§1) Cryo-conserved cultures of selected bacterial strains (Table 4) were transferred to Tryptic Soy Agar (TSA) plates (Carl Roth) with a sterile inoculation loop, sealed with Parafilm (BEMIS, Neenah, WI, USA), and incubated for 1–2 days at 37 °C depending on growth. Single colonies were picked and transferred into 2–3 mL of the Mueller–Hinton II (MH II) broth (BD, Heidelberg, Germany). The bacteria were cultivated overnight, subcultured on fresh medium and grown for 3–4 h before testing at 37 °C, with shaking at 180 rpm. We measured the optical density at 600 nm (OD600) of 1 mL of the bacterial suspensions in polystyrene cuvettes (SARSTED, Nümbrecht, Germany) using an Ultrospec 10 spectrophotometer (Biochrome, Cambridge, UK). We then diluted them with the MH II medium to the preferred OD600 (Table 2). The peptides were dissolved in DMSO to generate 10 mmol/L stocks and diluted with the MH II medium to 200 µM before the assay. We used 10 µg/mL (~40 µg/mL for S. epidermidis) gentamicin and colistin (Sigma-Aldrich, Taufkirchen, Germany), DMSO and the medium only as controls. The bacteria were transferred to 96-multiwell plates with a final volume of 100 µL per well (50 µL bacterial suspension, and 50 µL test peptide). The OD600 was measured at 0, 24 and 48 h using a BioTek Eon microplate reader followed by analysis with Gen5 v2.09.

[3] = tested on: Pseudomonas aeruginosa DSM 1117; assay: Antibacterial growth assay (OD600); settings: OD600, medium = 100, MH II broth, 37 °C, peptide 200 µM mixed 50 µL + 50 µL with bacteria, Figure 7: 48 h; for Bacterial growth relative to medium, P. aeruginosa (1117), replicate 1: replicate column 1; for Bacterial growth relative to medium, P. aeruginosa (1117), replicate 2: replicate column 2; for Bacterial growth relative to medium, P. aeruginosa (1117), replicate 3: replicate column 3
G. mellonella larvae = assay: Insecticidal activity by injection into larvae; assay type: in vivo, Galleria mellonella; settings: 50 ng peptide injected, 3 cohorts of 10 larvae, survival monitored for 5 days
Experimental: Insecticidal activity was determined using fourth and fifth instar G. mellonella larvae (L4/L5) obtained from Fauna Topics Zoobedarf Zucht und Handels GmbH (Marbach am Neckar, Germany). Because spider venom is injected via chelicerae, we opted for an injection-based assay to reflect the natural process of envenomation as described earlier. The peptides were dissolved in a 1:1 mixture of DMSO and water to a final concentration of 10 mmol/L. We injected 50 ng of each peptide into the pseudopodium using Omnican-F, 0.30 × 12 mm/G 30 × 1/2”, a 1 mL syringe adjusted to a WPI manual microsyringe injector setup. Injections with water, DMSO/water (1:1) and ethanol (90%) were used as controls, alongside untreated specimens. Insecticidal activity screenings were performed in cohorts of 10 larvae with 3 replicates (30 specimens per treatment or control). […] Survival was monitored every 24 h for 5 days. Mortality was calculated based on the ratio of dead to injected specimens.

[4] = tested on: panel of seven bacterial strains; assay: Antibacterial growth assay (OD600), statements on the whole panel; assay type: cell-based; settings: growth after 48 h
[5] = tested on: Staphylococcus epidermidis DSM 28319; assay: Antibacterial growth assay (OD600); settings: for Bacterial growth relative to medium, S. epidermidis, replicate 1 / Bacterial growth relative to medium, S. epidermidis, replicate 2 / Bacterial growth relative to medium, S. epidermidis, replicate 3: OD600, medium = 100, MH II broth, 37 °C, peptide 200 µM mixed 50 µL + 50 µL with bacteria, Figure 7: 48 h; for Bacterial growth relative to medium, S. epidermidis, replicate 1: replicate column 1; for Bacterial growth relative to medium, S. epidermidis, replicate 2: replicate column 2; for Bacterial growth relative to medium, S. epidermidis, replicate 3: replicate column 3
[6] = tested on: Micrococcus luteus DSM 20030; assay: Antibacterial growth assay (OD600); settings: for Antibacterial activity (in words): M. luteus DSM 20030, growth after 48 h; for Bacterial growth relative to medium, M. luteus, replicate 1 / Bacterial growth relative to medium, M. luteus, replicate 2 / Bacterial growth relative to medium, M. luteus, replicate 3: OD600, medium = 100, MH II broth, 37 °C, peptide 200 µM mixed 50 µL + 50 µL with bacteria, Figure 7: 48 h; for Bacterial growth relative to medium, M. luteus, replicate 1: replicate column 1; for Bacterial growth relative to medium, M. luteus, replicate 2: replicate column 2; for Bacterial growth relative to medium, M. luteus, replicate 3: replicate column 3
[7] = tested on: Escherichia coli BL21(DE3); assay: Antibacterial growth assay (OD600); settings: for Bacterial growth relative to medium, E. coli, replicate 1 / Bacterial growth relative to medium, E. coli, replicate 2 / Bacterial growth relative to medium, E. coli, replicate 3: OD600, medium = 100, MH II broth, 37 °C, peptide 200 µM mixed 50 µL + 50 µL with bacteria, Figure 7: 48 h; for Bacterial growth relative to medium, E. coli, replicate 1: replicate column 1; for Bacterial growth relative to medium, E. coli, replicate 2: replicate column 2; for Bacterial growth relative to medium, E. coli, replicate 3: replicate column 3
Experimental: as §1

[8] = tested on: B/Malaysia/2506/2004 (B-Mal); assay type: cell-based, influenza virus
[9] = tested on: Pseudomonas aeruginosa DSM 50071; assay: Antibacterial growth assay (OD600); settings: OD600, medium = 100, MH II broth, 37 °C, peptide 200 µM mixed 50 µL + 50 µL with bacteria, Figure 7: 48 h; for Bacterial growth relative to medium, P. aeruginosa (50071), replicate 1: replicate column 1; for Bacterial growth relative to medium, P. aeruginosa (50071), replicate 2: replicate column 2; for Bacterial growth relative to medium, P. aeruginosa (50071), replicate 3: replicate column 3

Sequence | Bacterial growth relative to medium, S. aureus, replicate 1 [1] | Bacterial growth relative to medium, S. aureus, replicate 2 [1] | Bacterial growth relative to medium, S. aureus, replicate 3 [1] | Viability of infected cells relative to aprotinin, Replicate 1 (A/Hamburg/05/2009 (H1N1)) | Viability of infected cells relative to aprotinin, Replicate 2 (A/Hamburg/05/2009 (H1N1)) | Viability of infected cells relative to aprotinin, Replicate 3 (A/Hamburg/05/2009 (H1N1)) | Viability of infected cells relative to aprotinin, Replicate 1 (A/Hessen/1/2003 (H3N2)) | Viability of infected cells relative to aprotinin, Replicate 2 (A/Hessen/1/2003 (H3N2)) | Viability of infected cells relative to aprotinin, Replicate 3 (A/Hessen/1/2003 (H3N2)) | Bacterial growth relative to medium, L. monocytogenes, replicate 1 [2] | Bacterial growth relative to medium, L. monocytogenes, replicate 2 [2] | Bacterial growth relative to medium, L. monocytogenes, replicate 3 [2] | Bacterial growth relative to medium, P. aeruginosa (1117), replicate 1 [3] | Bacterial growth relative to medium, P. aeruginosa (1117), replicate 2 [3] | Bacterial growth relative to medium, P. aeruginosa (1117), replicate 3 [3] | Insecticidal effect on larvae (in words) (G. mellonella larvae) | Antibacterial activity over the panel (in words) [4] | Bacterial growth relative to medium, S. epidermidis, replicate 1 [5] | Bacterial growth relative to medium, S. epidermidis, replicate 2 [5] | Bacterial growth relative to medium, S. epidermidis, replicate 3 [5] | other results
GSLLGLLDVVKSKVGQTGLL [LS-AMP-A19] | 70.8601 | 71.4846 | 83.7635 | 0.03506 | 0.03971 | 0.04612 | 0.07115 | 0.1267 | 0.119 | 151.42 | 105.659 | 60.4017 | 72.8823 | 76.8187 | 66.0758 | Individual dead insects | largely inactive | 91.5432 | 106.521 | 92.445 | Antibacterial activity (in words) [6]: strongly suppressed the growth; Bacterial growth relative to medium, M. luteus, replicate 1 [6]: 38.8889; Bacterial growth relative to medium, M. luteus, replicate 2 [6]: 63.626; Bacterial growth relative to medium, M. luteus, replicate 3 [6]: 16.4993; Bacterial growth relative to medium, E. coli, replicate 1 [7]: 95.9562; Bacterial growth relative to medium, E. coli, replicate 2 [7]: 82.2712; Bacterial growth relative to medium, E. coli, replicate 3 [7]: 94.9872; Viability of infected cells relative to aprotinin, Replicate 1 [8]: 0.02926; Viability of infected cells relative to aprotinin, Replicate 2 [8]: 0.02406; Viability of infected cells relative to aprotinin, Replicate 3 [8]: 0.04584; Bacterial growth relative to medium, P. aeruginosa (50071), replicate 1 [9]: 103.493; Bacterial growth relative to medium, P. aeruginosa (50071), replicate 2 [9]: 107.483; Bacterial growth relative to medium, P. aeruginosa (50071), replicate 3 [9]: 85.194
LLDVVKSKIGQTGLL [LS-AMP-A16] | 50.7381 | 99.8365 | 66.4796 | 0.02774 | 0.02676 | 0.01877 | 0.0324 | 0.05366 | 0.1082 | 81.5984 | 58.0902 | 20.8033 | 71.8168 | 74.7999 | 64.6393 | Individual dead insects | broad activity against all tested bacteria except P. aeruginosa DSM50071 | 52.6925 | 45.3012 | 72.1389 | Antibacterial activity (in words) ([1]; S. aureus DSM 2569, growth after 48 h): able to decrease the growth; Antibacterial activity (in words) ([2]; L. monocytogenes DSM 20600, growth after 48 h): able to decrease the growth; Antibacterial activity (in words) ([5]; S. epidermidis DSM 28319, growth after 48 h): able to decrease the growth; Antibacterial activity (in words) [6]: able to decrease the growth; Bacterial growth relative to medium, M. luteus, replicate 1 [6]: 57.3268; Bacterial growth relative to medium, M. luteus, replicate 2 [6]: 84.1216; Bacterial growth relative to medium, M. luteus, replicate 3 [6]: 27.4989; Antibacterial activity (in words) ([7]; E. coli BL21(DE3), growth after 48 h): able to decrease the growth; Bacterial growth relative to medium, E. coli, replicate 1 [7]: 67.9376; Bacterial growth relative to medium, E. coli, replicate 2 [7]: 59.8494; Bacterial growth relative to medium, E. coli, replicate 3 [7]: 34.0285; Viability of infected cells relative to aprotinin, Replicate 1 [8]: 0.002646; Viability of infected cells relative to aprotinin, Replicate 2 [8]: 0.01088; Viability of infected cells relative to aprotinin, Replicate 3 [8]: 0.03862; Bacterial growth relative to medium, P. aeruginosa (50071), replicate 1 [9]: 93.645; Bacterial growth relative to medium, P. aeruginosa (50071), replicate 2 [9]: 105.945; Bacterial growth relative to medium, P. aeruginosa (50071), replicate 3 [9]: 72.2488
SLLGLLDVVKNTVGQT [LS-AMP-A10] | 64.1206 | 64.9771 | 91.1709 | 0.0352 | 0.02417 | 0.03391 | 0.05441 | 0.1761 | 0.1729 | 109.148 | 78.161 | 28.6946 | 65.0772 | 90.1148 | 64.0892 | Individual dead insects | inhibited the growth of most of the bacteria except two | 79.4001 | 71.0012 | 83.073 | Viability of infected cells relative to aprotinin, Replicate 4 (A/Hessen/1/2003 (H3N2); […], replicate 4 (additional internal control)): 0.1942; Antibacterial activity (in words) [6]: no activity; Bacterial growth relative to medium, M. luteus, replicate 1 [6]: 61.1915; Bacterial growth relative to medium, M. luteus, replicate 2 [6]: 88.7389; Bacterial growth relative to medium, M. luteus, replicate 3 [6]: 35.3419; Bacterial growth relative to medium, E. coli, replicate 1 [7]: 81.6291; Bacterial growth relative to medium, E. coli, replicate 2 [7]: 64.3105; Bacterial growth relative to medium, E. coli, replicate 3 [7]: 57.0069; Viability of infected cells relative to aprotinin, Replicate 1 [8]: 0.07328; Viability of infected cells relative to aprotinin, Replicate 2 [8]: 0.09773; Viability of infected cells relative to aprotinin, Replicate 3 [8]: 0.07183; Bacterial growth relative to medium, P. aeruginosa (50071), replicate 1 [9]: 97.2952; Bacterial growth relative to medium, P. aeruginosa (50071), replicate 2 [9]: 110.352; Bacterial growth relative to medium, P. aeruginosa (50071), replicate 3 [9]: 83.9978
